According to patent publication US5298397A, “Method of assaying d-vanillylmandelic acid” (Yamasa Shoyu Kabushiki Kaisha, priority 1989, dated 1994):

Key:
[1] = system: anti-D-VMA antibody; assay: Cross-reactivity of anti-D-VMA monoclonal antibodies with acidic catecholamine metabolites (competitive enzyme immunoassay); type: binding, mouse; conditions: reactivity with D-VMA defined as 100%; for Antibody Reactivity (% by weight): from concentration ratios at 50% inhibition on standard curves
Method: Three days after the final booster, spleen cells of the mouse were enucleated and washed with Eagle's minimum essential medium (MEM). […] The spleen cells and P3 U1 were mixed at 10:1 and the mixture was centrifuged. To the pellets obtained was gradually added 1 ml of an MEM solution containing 50% polyethylene glycol (PEG) 1000 to cause cell fusion. […] 0.1 ml of the suspension was apportioned to each well of a 96-well microplate. One day thereafter, 0.1 ml of HAT medium was added. […] Into each well of the 96-well microplate previously coated with HSA and the 96-well microplate coated with D-VMA-HSA (10 μg/ml) was added […] of the above diluted culture supernatant. […] After one hour at room temperature, by the use of the same reagent as in the case of the ELISA method as described above except for using O-phenylenediamine as the chromogenic reagent, enzyme immunoassay was practiced according to the competitive reaction method.

[2] = system: peroxidase-labeled anti-D-VMA antibody; assay: Competitive enzyme immunoassay of D-VMA or L-VMA solutions with peroxidase-labeled anti-D-VMA antibody on solid-phase antigen plate; type: binding, mouse; conditions: conclusion drawn from Table 2
Method: A volume of 50 μl of the D-VMA solution or L-VMA solution as described above and 50 μl of the peroxidase-labeled anti-D-VMA antibody solution were added into each well, and reaction was carried out stationarily at room temperature for one hour.
After reaction, the solution in each well was discarded and each well was washed with a 0.9% aqueous sodium chloride solution.
After washing, 100 μl of a substrate solution (containing 1 mM H2 O2 and […] TMBZ) was added and left standing for 25 minutes. A volume of 100 μl of a reaction stopping solution (a 2N sulfuric acid solution) was added, and absorbance at 450 nm was measured by the use of a 96-well microplate reader MPR-A4 (produced by Toso K. K.).
After measurement, from the calibration curve prepared by the use of DL-VMA of a known concentration as a standard substance (FIG. 1), the VMA concentration corresponding to the above absorbance was determined.

| Antibody Reactivity (% by weight) [1] | reactivity of the labeled antibody [2] | cross-reactivity of the antibody reagent [1] | Compound |
| --- | --- | --- | --- |
| 100 % by weight |  |  | COc1cc([C@@H](O)C(=O)O)ccc1O [D-VMA, D-vanillylmandelic acid] |
| 4 % by weight |  |  | O=C(O)C(O)c1ccc(O)c(O)c1 (stereo not shown) [3,4-Dihydroxymandelic acid (DOMA), 3,4-Dihydroxymandelic acid] |
| 4 % by weight |  |  | COc1cc(CC(=O)C(=O)O)ccc1O [Vanillylpyruvic acid] |
| < 1 % by weight | substantially no reactivity | ≤ 1% | COc1cc([C@H](O)C(=O)O)ccc1O [L-VMA] |
| 50 % by weight |  |  | COc1cc(C(O)C(=O)O)ccc1O (racemic) [DL-VMA, vanillylmandelic acid] |

| Compound | Antibody Reactivity (% by weight) [1] | reactivity of the labeled antibody [2] | cross-reactivity of the antibody reagent [1] |
| --- | --- | --- | --- |
| O=C(O)Cc1ccc(O)c(O)c1 [3,4-Dihydroxyphenylacetic acid (DOPAC), 3,4-Dihydroxyphenylacetic acid] | < 0.01 % by weight |  |  |
| COc1cc(CC(=O)O)ccc1O [Homovanilic acid (HVA), Homovanilic acid] | < 0.01 % by weight |  |  |
| CNCC(O)c1ccc(O)c(OC)c1 (stereo not shown) [Metanepherine] | < 0.01 % by weight |  |  |
